# Measurements reported in publication PMC8445441, “Elucidating the mechanism by which synthetic helper peptides sensitize Pseudomonas aeruginosa to multiple antibiotics” (PLoS Pathogens, 2021).
# “Also recorded” adds a separate entry of the source. Positions of bridges follow the written chain, without caps; N, C: chain ends. Non-standard residues stand in square brackets, D forms with d. Residues, ends and D or L forms follow the SMILES beside them. *: point of attachment. X1 = CC[C@H](C)CCCCC(=O)*; Dab = NCC[C@H](N)C(=O)O
# How the values were obtained:
# [1] = cited from earlier work
# HEK-293 cells = details: high concentration of D-11; cited from earlier work
# Text: Interes ... || Response: This comment is valuable. […] We believe that it is a safe drug candidate.
# [2] = mice
# Text: Since D-11 contains five positively charged amino acids, it is easier to bind to bacterial negatively charged membrane components.
# However, we still carried out high-dose toxicity tests in mice according to the recommendations.
# P. aeruginosa PAO1 = experiment: microbe, parasite or virus in culture; details: for MICac: the MIC for the antibiotic in the combination: S3 Table, PAO1
# Method in brief: (§1)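 MICs were determined by CLSI broth microdilution in MHB, in triplicate: two-fold drug dilutions were mixed 1:1 with bacterial suspension of ~1 × 10^6 CFU/mL and incubated 18 h at 37 °C. The MIC was the lowest concentration with no visible growth.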
# [3] = test system: clinical P. aeruginosa isolates; experiment: microbe, parasite or virus in culture; details: clinical isolates, 18 h
# Method in brief: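 Broth microdilution per CLSI in MHB, two-fold drug dilutions mixed with an equal volume of bacteria at about 1 × 10^6 CFU/mL. After 18 h at 37 °C, MIC taken as the lowest concentration with no visible growth; run in triplicate.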
# P. aeruginosa AUMC-Pa-2 = details: strain AUMC-Pa-2, unit not given
# Method in brief: as §1
# P. aeruginosa AUMC-Pa-1 = details: strain AUMC-Pa-1, unit not given
# Method in brief: as §1
# P. aeruginosa HM-214 = test system: P. aeruginosa HM-214; design: MICa: MIC of the antibiotic / MICac: MIC of the antibiotic in the combination: unit not given beside the values; details: strain HM-214, unit not given
# Method in brief: as §1
# P. aeruginosa AUMC-Pa-3 = experiment: microbe, parasite or virus in culture; details: strain AUMC-Pa-3, unit not given
# Method in brief: as §1
# P. aeruginosa AUMC-Pa-6 = experiment: microbe, parasite or virus in culture; details: strain AUMC-Pa-6, unit not given
# Method in brief: as §1
# P. aeruginosa AUMC-Pa-4 = experiment: microbe, parasite or virus in culture; details: strain AUMC-Pa-4, unit not given
# Method in brief: as §1
# P. aeruginosa AUMC-Pa-5 = experiment: microbe, parasite or virus in culture; details: strain AUMC-Pa-5, unit not given
# Method in brief: as §1
# PAO1 in human blood = experiment: Antimicrobial activity in blood (ex vivo bacteremia model); assay type: cell-based, Pseudomonas aeruginosa; details: human blood, 5×10^7 CFU/mL PAO1; antibiotic combined with D-11 (4 μM); 4 hours
# Experimental: Human blood of healthy individuals was obtained from Sanquin (certified Dutch organization responsible for meeting the need in healthcare for blood and blood products, https://www.sanquin.nl/) and was infected with 5×10^7 CFU/mL of PAO1. The blood was distributed at 0.5 mL in 2 mL Eppendorf tubes and treated with the antibiotics and peptides at the indicated concentrations at 37 °C for 4 hours. The samples were decimal serially diluted in PBS. Drops of 10 μL of each dilution on LB agar to track the development of infection. The experiment was performed in triplicate.
# P. aeruginosa NR-31040 = experiment: microbe, parasite or virus in culture; design: MICa: MIC of the antibiotic / MICac: MIC of the antibiotic in the combination: unit not given beside the values; details: strain NR-31040, unit not given
# Method in brief: as §1
# P. aeruginosa ATCC27853 = experiment: microbe, parasite or virus in culture; design: MICa: MIC of the antibiotic / MICac: MIC of the antibiotic in the combination: unit not given beside the values; details: strain ATCC27853, unit not given
# Method in brief: as §1
# P. aeruginosa PAK = experiment: microbe, parasite or virus in culture; design: MICa: MIC of the antibiotic / MICac: MIC of the antibiotic in the combination: unit not given beside the values; details: strain PAK, unit not given
# Method in brief: as §1
# P. aeruginosa PA14 = experiment: microbe, parasite or virus in culture; design: MICa: MIC of the antibiotic / MICac: MIC of the antibiotic in the combination: unit not given beside the values; details: strain PA14, unit not given
# Method in brief: as §1
# P. aeruginosa NR-31041 = experiment: microbe, parasite or virus in culture; design: MICa: MIC of the antibiotic / MICac: MIC of the antibiotic in the combination: unit not given beside the values; details: strain NR-31041, unit not given
# Method in brief: as §1
structure (smiles),measurement,setting,value
CC[C@@H](C)[C@@H](NC(=O)[C@H](N)CCCNC(=N)N)C(=O)N[C@@H](C(=O)N[C@H](CCC(N)=O)C(=O)N[C@H](CCCNC(=N)N)C(=O)N[C@@H](C(=O)N[C@H](CCCCN)C(=O)N[C@H](CCCCN)C(=O)N[C@H](Cc1c[nH]c2ccccc12)C(=O)N[C@H](CC(C)C)C(=O)N[C@H](CCCNC(=N)N)C(N)=O)[C@H](C)CC)C(C)C [Peptide D-11] (H-[dR][dI][dV][dQ][dR][dI][dK][dK][dW][dL][dR]-NH2),stability in plasma (in words),[1],stable in plasma
same,toxicity to HEK-293 cells (in words),HEK-293 cells,not toxic to HEK-293 cells; also recorded: no toxicity to HEK-293 cells
same,side effects in vivo (in words),[2]; 10 mg/kg D-11,no obvious side effects were observed
same,irritation after subcutaneous injection (in words),[2]; subcutaneous 20 mg/kg D-11,slightly irritating
same,MIC of the peptide,"P. aeruginosa PAO1; PAO1, 18 h",32 µM
same,MICb: the MIC of D-11,"P. aeruginosa PAO1; PAO1, 18 h",32 µM
same,MICb: the MIC of the peptide,"P. aeruginosa PAO1; PAO1, 18 h",32 µM
CC[C@H](C)CCCCC(=O)N[C@@H](CCN)C(=O)N[C@H](C(=O)N[C@@H](CCN)C(=O)N[C@H]1CCNC(=O)[C@H]([C@@H](C)O)NC(=O)[C@H](CCN)NC(=O)[C@H](CCN)NC(=O)[C@H](CC(C)C)NC(=O)[C@@H](Cc2ccccc2)NC(=O)[C@H](CCN)NC1=O)[C@@H](C)O [Polymyxin B] (X1-[Dab]T[Dab][Dab][Dab][dF]L[Dab][Dab]T; lactam 4-C (inferred); N-terminus assumed),Antibiotic sensibility (MIC) of clinical P. aeruginosa isolate AUMC-Pa-1,[3],0.25 µM
same,Antibiotic sensibility (MIC) of clinical P. aeruginosa isolate AUMC-Pa-2,[3],0.25 µM
same,Antibiotic sensibility (MIC) of clinical P. aeruginosa isolate AUMC-Pa-3,[3],0.125 µM
same,Antibiotic sensibility (MIC) of clinical P. aeruginosa isolate AUMC-Pa-4,[3],1 µM
same,Antibiotic sensibility (MIC) of clinical P. aeruginosa isolate AUMC-Pa-5,[3],1 µM
same,Antibiotic sensibility (MIC) of clinical P. aeruginosa isolate AUMC-Pa-6,[3],1 µM
same,Antibiotic sensibility (MIC) of clinical P. aeruginosa isolate HM-214,[3],0.25 µM
same,Antibiotic sensibility (MIC) of clinical P. aeruginosa isolate NR-31040,[3],0.25 µM
same,Antibiotic sensibility (MIC) of clinical P. aeruginosa isolate NR-31041,[3],0.125 µM
same,MICa: MIC of the antibiotic,P. aeruginosa AUMC-Pa-2; antibiotic alone,0.25
same,MICac: MIC of the antibiotic in the combination,P. aeruginosa AUMC-Pa-2; with D-11 at MICbc 4,0.016
same,MICa: MIC of the antibiotic,P. aeruginosa AUMC-Pa-1; antibiotic alone,0.25
same,MICac: MIC of the antibiotic in the combination,P. aeruginosa AUMC-Pa-1; with D-11 at MICbc 4,0.016
same,MICa: MIC of the antibiotic,P. aeruginosa HM-214; antibiotic alone,0.25
same,MICac: MIC of the antibiotic in the combination,P. aeruginosa HM-214; with D-11 at MICbc 4,0.031
same,MICa: MIC of the antibiotic,P. aeruginosa AUMC-Pa-3; antibiotic alone,0.125
same,MICac: MIC of the antibiotic in the combination,P. aeruginosa AUMC-Pa-3; with D-11 at MICbc 4,0.002
same,MICa: MIC of the antibiotic,P. aeruginosa AUMC-Pa-6; antibiotic alone,1
same,MICac: MIC of the antibiotic in the combination,P. aeruginosa AUMC-Pa-6; with D-11 at MICbc 4,0.25
same,MICa: MIC of the antibiotic,P. aeruginosa AUMC-Pa-4; antibiotic alone,1
same,MICac: MIC of the antibiotic in the combination,P. aeruginosa AUMC-Pa-4; with D-11 at MICbc 4,0.5
same,MIC of polymyxin B,P. aeruginosa PAO1; 1×MIC used as positive control,0.5 µg/mL
same,MICa: the MIC of antibiotics,"P. aeruginosa PAO1; PAO1, 18 h",0.25 µM
same,MICac: the MIC for the antibiotic in the combination,P. aeruginosa PAO1; with 2 μM D-11,0.004 µM
same,MICac: the MIC for the antibiotic in the combination,P. aeruginosa PAO1; with 4 μM D-11,0.001 µM
same,MICa: MIC of the antibiotic,P. aeruginosa AUMC-Pa-5; antibiotic alone,1
same,MICac: MIC of the antibiotic in the combination,P. aeruginosa AUMC-Pa-5; with D-11 at MICbc 4,0.125
same,antibacterial effect in blood (in words),PAO1 in human blood,relative week antibacterial effects
same,MICa: MIC of the antibiotic,P. aeruginosa NR-31040; antibiotic alone,0.25
same,MICac: MIC of the antibiotic in the combination,P. aeruginosa NR-31040; with D-11 at MICbc 4,0.031
same,MICa: MIC of the antibiotic,P. aeruginosa ATCC27853; antibiotic alone,0.125
same,MICac: MIC of the antibiotic in the combination,P. aeruginosa ATCC27853; with D-11 at MICbc 4,0.008
same,MICa: MIC of the antibiotic,P. aeruginosa PAK; antibiotic alone,0.125
same,MICac: MIC of the antibiotic in the combination,P. aeruginosa PAK; with D-11 at MICbc 4,0.008
same,MICa: MIC of the antibiotic,P. aeruginosa PA14; antibiotic alone,0.125
same,MICac: MIC of the antibiotic in the combination,P. aeruginosa PA14; with D-11 at MICbc 4,0.008
same,MICa: MIC of the antibiotic,P. aeruginosa NR-31041; antibiotic alone,0.125
same,MICac: MIC of the antibiotic in the combination,P. aeruginosa NR-31041; with D-11 at MICbc 4,0.008
